Laboratory results as given in patent US20230212159A1, “Process for the Production of Ferroportin Inhibitors” (Vifor (International) AG, priority 2020, published 2023).
Where two headings read alike, the source gives them in different places.

How the values were obtained:
[1] = molecular target: T1, human Fpn-GFP fusion protein (Homo sapiens, UniProt Q9NP59); experiment: Ferroportin internalization and degradation assay (FACS, HEK-293 cell line #354); assay type: cell-based
T1 construct: expressed in transfected cells; host or cells: HEK-293 cell line #354 (derivative of HEK-293 Tet-ON Advanced)
T1 sequence (Q9NP59 1-571): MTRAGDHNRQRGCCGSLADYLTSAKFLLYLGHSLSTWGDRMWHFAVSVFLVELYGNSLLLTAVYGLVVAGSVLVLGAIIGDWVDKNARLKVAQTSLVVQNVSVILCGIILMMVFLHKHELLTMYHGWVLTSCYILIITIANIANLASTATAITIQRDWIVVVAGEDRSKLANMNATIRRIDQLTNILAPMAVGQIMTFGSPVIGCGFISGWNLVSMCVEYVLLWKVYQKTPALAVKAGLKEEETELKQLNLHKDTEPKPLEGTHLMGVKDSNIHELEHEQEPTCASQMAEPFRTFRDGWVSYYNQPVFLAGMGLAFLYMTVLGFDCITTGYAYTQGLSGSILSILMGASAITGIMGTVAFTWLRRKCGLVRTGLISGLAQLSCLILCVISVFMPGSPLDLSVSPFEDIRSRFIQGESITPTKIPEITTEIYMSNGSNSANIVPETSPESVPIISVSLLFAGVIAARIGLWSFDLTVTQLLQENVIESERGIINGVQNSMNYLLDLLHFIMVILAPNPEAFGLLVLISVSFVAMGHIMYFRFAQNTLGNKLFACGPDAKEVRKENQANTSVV
Description: HEK-293 cell line #354 (described in 11.3) was used to measure the capacity of the compounds to induce internalization and degradation of ferroportin (Fpn) by fluorescence activated cell sorting (FACS). Growing HEK-293 #354 cells in doxycycline containing media induced expression of human Fpn-GFP fusion protein on the cell surface. […] Small molecular weight Fpn inhibitor compounds were tested for dose-dependent effects on the Fpn-GFP mean fluorescence intensity (MFI) on HEK-293 cell line #354, as described below.
HEK#354 cells were harvested from ca. 80% confluent cultures, seeded at 0.6x10^6 cells/ml in DMEM/F12 GlutaMAX™ medium (Invitrogen, Cat. 31331-028) containing 10% FBS (Clontech, Cat. 631106), 1% Penicillin-Streptomycin (Invitrogen, Cat. 15140-122), 200 µg/ml Hygromycin B (Invitrogen, Cat. 10687-010), Blasticidin 5 µg/ml, (Invitrogen, Cat. R210-01), 4 µg/ml doxycycline (Clontech, Cat. 631311), 50 µl per well of 384 well plates (Greiner; Cat. 781091) and grown at 37° C. with 5% CO2. After overnight incubation, 10 µl/well of dilution series of the test compounds were added in quadruplicates and plates were further incubated overnight at 37° C. with 5% CO2. Cells were washed once with FACS buffer (PBS containing 1% FBS, 2 mM EDTA and 0.05% NaN3), harvested in FACS buffer with 0.5 µg/ml propidium iodide (Sigma, Cat. P4864) and analyzed in a flow cytometer (CANTO^tm II, BD Biosciences) equipped with high throughput sampler. Live HEK#354 cells were gated as propidium iodide negative population and analyzed for expression of Fpn-GFP. MFI of Fpn-GFP of > 2000 live cells for each compound dilution was calculated using FlowJo (Tree Star’s, Oregon) and the potency of the Fpn-inhibitors to induce internalization and degradation of Fpn-GFP was calculated as described for the hepcidin internalization assay. EC50 data of the Compounds (II) and (II′) tested in the ferroportin internalization and degradation assay by FACS are listed in Table 4. The average EC50 value of hepcidin in this assay is 0.004 ± 0.002 µM.

[2] = molecular target: T2, ferroportin (Fpn) (Homo sapiens, UniProt Q9NP59); experiment: Inhibition of ferroportin mediated iron export activity in an iron response assay (BLA reporter, HEK-293 cell line #354); assay type: cell-based; conditions: for IC50: HEK-293 cell line #354, BLA reporter, tested as 3HCl-salts, n=3, read-out: Iron response (HEK354 Blazer) IC50; for EC50: average of multiple measurements, iron response assay, 3HCl-salts, read-out: BLAzer EC50
T2 construct: expressed in transfected cells; host or cells: HEK-293 cell line #354 (derivative of HEK-293 Tet-ON Advanced)
T2 sequence (Q9NP59 1-571): T1 sequence (Q9NP59 1-571)
Description: Intracellular iron levels are indirectly measured in this assay by monitoring the activity of a beta-lactamase (BLA) reporter gene fused to the human ferritin promoter and the associated iron regulatory element (IRE) contained within the 5′ untranslated region of the ferritin mRNA. Expression of ferroportin (Fpn) in such a cell line leads to iron efflux and lower iron levels as reflected by lower activity of the reporter gene. On the other hand, inhibition of Fpn-mediated iron efflux results in elevated cellular iron levels which is detected as increased reporter gene activity. Small molecular weight Fpn inhibitor compounds were tested for dose-dependent effects in this in vitro iron response assay as described below.
The HEK-293 cell line #354 was generated by stable integration of (i) a human Fpn-GFP fusion construct inserted in a derivative of the doxycycline-inducible pTRE-Tight-BI plasmid (Clontech, Cat. 631068) and (ii) a human ferritin promoter-BLA reporter gene into a derivative of the HEK-293 Tet-ON Advanced cell line (Clontech). To generate the ferritin-BLA reporter gene construct, a 1.4 kb fragment of the human ferritin H promoter was amplified by PCR from human genomic DNA (forward primer 5′-[…]-3′; reverse primer 5′-GGCGGCGACTAAGGAGAGG-3′) and inserted in front of the BLA gene present in the pcDNA™6.2/cGeneBLAzer™-DEST plasmid (Invitrogen, Cat. 12578-043) thereby replacing the original CMV promoter and placing the IRE that regulates translation of the ferritin gene ca. 170 bp upstream of the start codon of the reporter gene. #354 cells were harvested from ca. 80% confluent cultures, seeded at 1.8x10^5 cells/ml in DMEM/F12 GlutaMAX™ medium (Invitrogen, Cat. 31331-028) containing 10% FBS (Clontech, Cat. 631106), 1% Penicillin-Streptomycin, 200 µg/ml Hygromycin B (Invitrogen, Cat. 10687-010), Blasticidin 5 µg/ml, (Invitrogen, Cat. R210-01), 4 µg/ml doxycycline (Clontech, Cat. 631311), 50 µl per well of 384 well PDL-coated plates and grown at 37° C. with 5% CO2. After overnight incubation, 10 µl/well of dilution series of the test compounds were added in quadruplicates and plates were further incubated overnight at 37° C. with 5% CO2. Cells were washed 3 times with HBSS leaving 25 µl per well. BLA activity was detected by adding 5 µl/well of the GeneBlazer reagent CCF4-AM (Invitrogen, Cat. K1085) to the cells. After incubation of the plates in the dark at 18° C. for 60 min., blue and green fluorescence signals were measured in a Safire2 fluorescence plate reader (Tecan) with excitation at 410 nm and emissions at 458 nm (blue) and 522 nm (green). The ratio of blue/green fluorescence as a measure for BLA activity was calculated and EC50 values were determined with the calculated blue/green fluorescence ratios as described for the hepcidin internalization assay.

[3] = HEK-293 cell line #354, FACS, tested as 3HCl-salts, n=2, read-out: Fpn internalization and degradation (HEK354 FACS) IC50
[4] = average of multiple measurements, HEK-293 #354 FACS, 3HCl-salts, read-out: EC50 (ferroportin internalization and degradation assay)

| SMILES | DC50 [1, 3] [nM] | DC50 [1, 4] [nM] | IC50 [2] [nM] | EC50 [2] [nM] |
| --- | --- | --- | --- | --- |
| O=C(NCc1ncccc1Br)c1coc(CCNCCc2nc3ccccc3[nH]2)n1 [Compound (II′)] | 161 | 161 | 168 | 168 |
| CC[C@H](C)[C@@H]1NC(=O)[C@@H](NC(=O)[C@@H](NC(=O)[C@@H]2CCCN2C(=O)[C@H](Cc2ccccc2)NC(=O)[C@H](Cc2c[nH]cn2)NC(=O)[C@@H](NC(=O)[C@@H](N)CC(=O)O)[C@@H](C)O)[C@@H](C)CC)CSSC[C@@H](C(=O)N[C@@H](CCCCN)C(=O)N[C@H](C(=O)O)[C@@H](C)O)NC(=O)[C@@H]2CSSC[C@@H]3NC(=O)[C@@H]4CSSC[C@H](NC(=O)[C@H](Cc5ccccc5)NC1=O)C(=O)N[C@@H](CSSC[C@H](NC(=O)[C@H](CCCCN)NC(=O)[C@H](CO)NC(=O)[C@H](CCCNC(=N)N)NC(=O)[C@H](Cc1c[nH]cn1)NC3=O)C(=O)NCC(=O)N[C@@H](CCSC)C(=O)N2)C(=O)NCC(=O)N4 [hepcidin, reference compound] | 6 |  | 39 |  |
| O=C(NCc1ncccc1F)c1coc(CCNCCc2nc3ccccc3[nH]2)n1 [Compound (II)] | 119 | 119 | 156 | 156 |
